According to PubChem BioAssay AID1996:
Converted amounts (≈) assume the structure as drawn.

Conditions: buffer; pH 7.4; 200.0 µM
Work on `CCN1CCN(CCC(=O)Nc2cc(OC)cc(OC)c2)CC1` yielded a solubility kinetic of 35.2 µg/mL (≈ 110 µM).
In the case of `Nc1cc(=O)[nH]c(SCc2ccc(Cl)cc2Cl)n1`, the solubility kinetic was 1 µg/mL (≈ 3.31 µM).
Compound `Cn1c(=O)c2c(ncn2CC(=O)Nc2nccs2)n(C)c1=O` has a solubility kinetic of 26.1 µg/mL (≈ 81.5 µM).
Compound `Cc1cc(NC(=O)/C=C/c2ccccc2)c(C(C)C)cc1O` has a solubility kinetic of 5.4 µg/mL (≈ 18.3 µM).
`CCc1ccc(C(C)NC(=O)c2cccs2)cc1` (stereo not given) gave a solubility kinetic of 9 µg/mL (≈ 34.7 µM).
With `O=C(Nc1cccc(Cl)c1)Nc1cnccn1` the solubility kinetic was 1.3 µg/mL (≈ 5.23 µM).
Work on `CC(=O)c1ccc(N2C(=O)CC(N3CCN(S(=O)(=O)c4ccc(C)c(C)c4)CC3)C2=O)cc1` (stereo not given) yielded a solubility kinetic of 15 µg/mL (≈ 31.9 µM).
For `COc1ccc(S(=O)(=O)N2CCCc3ccccc32)cc1[N+](=O)[O-]`, the solubility kinetic was 9.7 µg/mL (≈ 27.8 µM).
Compound `O=C(Nc1ccc(Oc2cccc(C(F)(F)F)c2)nc1)c1cccs1` has a solubility kinetic of under 0.4 µg/mL.
For `O=C(NC1CCCc2ccccc21)N[C@@H](Cc1ccccc1)C(=O)O` (stereo not given in full), the solubility kinetic was over 50.8 µg/mL.
Work on `O=C(/C=C/c1cc(Br)ccc1F)Nc1cccnc1` yielded a solubility kinetic of 2 µg/mL (≈ 6.23 µM).
For `S=C(NCc1cccs1)Nc1cc(Cl)cc(Cl)c1`, the solubility kinetic was 0.7 µg/mL (≈ 2.21 µM).
With `COc1cccc(C(=O)N2CCOCC2)c1` the solubility kinetic was 32.5 µg/mL (≈ 147 µM).
`COC(=O)Cn1cnc2c(oc3ccccc32)c1=O` gave a solubility kinetic of over 38.7 µg/mL.
`Nc1ncn([C@@H]2O[C@H](CO)[C@@H](O)[C@H]2O)c(=O)n1` gave a solubility kinetic of over 36.6 µg/mL.
For `O=C(CSc1nccc(-c2cccs2)n1)Nc1cccc(Cl)c1`, the solubility kinetic was 2.2 µg/mL (≈ 6.08 µM).
Work on `CN1CCN(c2ccc(CNC(=O)c3cc4ccccc4o3)cc2)CC1` yielded a solubility kinetic of 49.5 µg/mL (≈ 142 µM).
With `N/C(=N\OC(=O)c1ccc(Cl)c(Cl)c1)c1cccc(CSc2ccccn2)c1` the solubility kinetic was 0.9 µg/mL (≈ 2.08 µM).
For `O=C(Nc1cccc([N+](=O)[O-])c1)N1CCCCCC1`, the solubility kinetic was 37.5 µg/mL (≈ 142 µM).
`O=C(CCCOc1ccccc1)NC(=S)Nc1ccccc1` showed a solubility kinetic of 1.8 µg/mL (≈ 5.73 µM).
In the case of `Cc1cn2c(N)c(/C=C3\C=Nc4ccccc43)c(=O)nc2s1`, the solubility kinetic was under 0.2 µg/mL.
In the case of `Cc1ccc(OCCC(=O)OCC(=O)NC2CCCC(C)C2C)cc1` (stereo not given), the solubility kinetic was 15.9 µg/mL (≈ 45.8 µM).
In the case of `CCC(CC)C(=O)c1c[nH]c(C(=O)NCc2ccncc2)c1`, the solubility kinetic was 44.2 µg/mL (≈ 148 µM).
In the case of `Nc1ccccc1SCC(=O)Nc1nccs1`, the solubility kinetic was over 39.8 µg/mL.
`Cc1ccc(NC(=O)c2ccc(CSc3ccccn3)cc2)c(O)c1` gave a solubility kinetic of 1 µg/mL (≈ 2.85 µM).
For `CCCn1c2ccccc2c2cnn(CC(=O)O)c(=O)c21`, the solubility kinetic was over 42.8 µg/mL.
With `O=C(COC(=O)COc1ccccc1)Nc1ccc2c(c1)OCCO2` the solubility kinetic was 15.3 µg/mL (≈ 44.6 µM).
For `Fc1cccc(NC(=S)N2CCN(c3ccccn3)CC2)c1`, the solubility kinetic was 5.6 µg/mL (≈ 17.7 µM).
Work on `CCC(CC)C(=O)c1c[nH]c(C(=O)NCCOC)c1` yielded a solubility kinetic of over 40 µg/mL.
With `Cc1ccc(C2=NCC(=O)Nc3ccc(Br)cc32)cc1` the solubility kinetic was 42.1 µg/mL (≈ 128 µM).
For `CC(C)(C)Nc1nc(Cl)nc(NC2CCCCC2)n1`, the solubility kinetic was 0.2 µg/mL (≈ 0.705 µM).
In the case of `O=C1/C(=C\c2ccc(O)cc2)SC(=S)N1Cc1ccccc1`, the solubility kinetic was under 0.7 µg/mL.
Compound `O=S(=O)(Cc1ncc(C(F)(F)F)cc1Cl)c1ccccc1` has a solubility kinetic of over 50.4 µg/mL.
Compound `COc1ccc(Cl)cc1C(=O)OCC(=O)c1ccc[nH]1` has a solubility kinetic of 8.4 µg/mL (≈ 28.6 µM).
With `COc1ccc(OC(C)C(=O)NC(C)c2ccccc2)cc1` (stereo not given) the solubility kinetic was over 44.9 µg/mL.
Compound `Cc1ccccc1Nc1nc(N)nc(COC(=O)c2ccco2)n1` has a solubility kinetic of over 48.8 µg/mL.
`CC(CCN1CCN(c2ccccn2)CC1)c1ccccc1` (stereo not given) showed a solubility kinetic of 31 µg/mL (≈ 105 µM).
With `O=C(COc1cccnc1[N+](=O)[O-])NCc1ccc(F)cc1` the solubility kinetic was over 45.8 µg/mL.
With `COc1ccccc1CNC(c1ccccc1)c1ccccc1` the solubility kinetic was 3.3 µg/mL (≈ 10.9 µM).
With `Cc1cccc(Nc2nc(N)c([N+](=O)[O-])c(NCCO)n2)c1` the solubility kinetic was 19.8 µg/mL (≈ 65.1 µM).
Compound `CC(C)(C)c1ccc(/C=C/C(=O)NCCCn2ccnc2)cc1` has a solubility kinetic of 46.1 µg/mL (≈ 148 µM).
With `COc1ccccc1NC(=O)COc1ccc2ccccc2c1` the solubility kinetic was 2.5 µg/mL (≈ 8.13 µM).
Compound `COn1c(-c2ccc(C)cc2)nc2ncccc21` has a solubility kinetic of over 35.9 µg/mL.
Compound `CC1(C)CC(=O)C=C(NCCc2ccccc2)C1` has a solubility kinetic of 35.1 µg/mL (≈ 144 µM).
`O=C(Nc1ccc(Nc2ccccc2)cc1)c1c(Cl)cccc1Cl` showed a solubility kinetic of 1.2 µg/mL (≈ 3.36 µM).
`Cc1ccc(S(=O)(=O)Nc2ccc(S(=O)(=O)Nc3nccs3)cc2)cc1C` gave a solubility kinetic of over 63.5 µg/mL.
Work on `Fc1ccc2nc3c(nc2c1)CCCC3` yielded a solubility kinetic of 13.3 µg/mL (≈ 65.8 µM).
`CCc1cccc(C)c1NC(=O)Cc1ccsc1` gave a solubility kinetic of 34.9 µg/mL (≈ 135 µM).
Work on `O=C(/C=C/c1ccco1)Nc1ccc2c(c1)OCO2` yielded a solubility kinetic of 36.8 µg/mL (≈ 143 µM).
Work on `COc1ccc(/C=C2\SC(=N)N(c3ccc(F)cc3)C2=O)cc1OC` yielded a solubility kinetic of 3.8 µg/mL (≈ 10.6 µM).
`O=C1NC(=Nc2ccccc2Cl)S/C1=C\c1cccc([N+](=O)[O-])c1` gave a solubility kinetic of 4.2 µg/mL (≈ 11.7 µM).
`Cc1ccc(OCC(=O)NCCCNC(=O)c2cccnc2)cc1C` showed a solubility kinetic of over 51.2 µg/mL.
Compound `Cc1cc(NCc2ccc(F)cc2)nc2cc(Cl)ccc12` has a solubility kinetic of 0.8 µg/mL (≈ 2.66 µM).
Work on `O=C(CSc1ccccc1F)NC(=O)c1ccccc1Br` yielded a solubility kinetic of over 55.2 µg/mL.
Work on `Cc1ccc(OCc2ccc(C(=O)NN)o2)c([N+](=O)[O-])c1` yielded a solubility kinetic of over 43.7 µg/mL.
For `COc1ccc(C(=O)CSc2nccn2C)c(OC)c1`, the solubility kinetic was over 43.9 µg/mL.
`N#Cc1cccc(NC(=O)CCc2ccc(S(=O)(=O)N3CCOCC3)cc2)c1` showed a solubility kinetic of 48 µg/mL (≈ 120 µM).
Compound `O=c1[nH]c(=O)n(C2OC(CO)C(O)C2O)cc1Br` (stereo not given) has a solubility kinetic of over 48.5 µg/mL.
Work on `S=C(Nc1cccnc1)Nc1ccccc1Br` yielded a solubility kinetic of over 46.2 µg/mL.
`O=C(COc1ccc(Cl)cc1)NCCCNC(=O)c1ccccn1` gave a solubility kinetic of 50.5 µg/mL (≈ 145 µM).
